Test system: dextransucrase
Experiment: Inhibition of dextransucrase synthesis of dextran from 14C-sucrose (radioactive polysaccharide on paper, slope versus control)
Assay type: biochemical, bacteria
Settings: compared to 6,1',6'-trifluorosucrose
Procedure: Dextransucrase was obtained from the culture supernatant of bacteria. Various amounts (6 to 30 mg/ml) of the fluorosucrose mixture prepared as in Example I were added to the enzyme (3 units/ml)* and allowed to incubate 10 minutes. At the end of this time, the enzyme was assayed by adding 1/2 volume of 0.3 M ^14 C-(U)-sucrose to the fluorosucrose-enzyme solution; equal aliquots were withdrawn with time and spotted onto 1.5×1.5 cm squares of Whatman 3 MM paper, which were immediately dropped into 20 ml anhydrous methanol. Three 200 ml volumes of methanol were added in 15 min. intervals. The papers were then removed, dried, and the radioactivity determined in a liquid scintillation spectrometer. The amount of radioactivity (polysaccharide formed) was plotted against the reaction time with sucrose (time of aliquot removed). The slopes of the resulting lines were determined and the percent inhibition calculated from the ratio of the slopes of the inhibited reactions to the slope of a control in which no inhibitor was added.
*Units are in terms of International Enzyme Units, that is, the amount of enzyme that will incorporate one micromole of monomer into polysaccharide per minute under conditions of optimum temperature and pH.

O[C@@H]1[C@@H](O)[C@@H](O[C@]2(CCl)O[C@H](CCl)[C@@H](O)[C@@H]2O)O[C@H](CCl)[C@H]1O [6,1',6'-trichlorosucrose]
effectiveness as an inhibitor for dextran: relatively ineffective

Reference: patent publication US4228150A, “Method of inhibiting dextransucrase and oral compositions for use therein” (Iowa State University Research Foundation, Inc., priority 1979, dated 1980)
